pIC50: −log10 of the molar value. A value given as a limit tells only on which side of the number the result lay.

The subject of the experiment is MV-4-11 cells. Nature of the experiment: Cell Viability Assay in MV-4-11 Cells. The experiment is classed as cell-based. Conditions: Homo sapiens, MV4-11, 72 h, MV-4-11 cells, 72 h, Cell-Titer Glo; read-out: IC50. In outline: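 MV-4-11 cells at 7,000/well in IMDM with 10% FBS, exposed to compound for 72 h. Viability by CellTiter-Glo luminescence, normalized to DMSO as 100%, fitted with a four-parameter curve.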
Take `COCCN(C)c1ccnc(Nc2ccc(C(=O)N(c3nccc4cccc(C)c34)[C@@H]3CCCNC3)c(F)c2)n1` [Example 742, (R)-2-fluoro-4-((4-((2-methoxyethyl)(methyl)amino)pyrimidin-2-yl)amino)-N-(8-methylisoquinolin-1-yl)-N-(piperidin-3-yl)benzamide]: the pIC50 is 7.09.

Turning to `Cc1cccc2ccnc(N(C(=O)c3ccc(Nc4nccc(N(C)CCO)n4)cc3F)[C@@H]3CCCNC3)c12` [Example 743, (R)-2-fluoro-4-((4-((2-hydroxyethyl)(methyl)amino)pyrimidin-2-yl)amino)-N-(8-methylisoquinolin-1-yl)-N-(piperidin-3-yl)benzamide], the pIC50 was 6.80.

As to `COCCNc1ccnc(Nc2ccc(C(=O)N(c3nccc4cccc(C)c34)[C@@H]3CCCNC3)c(F)c2)n1` [Example 744, (R)-2-fluoro-4-((4-((2-methoxyethyl)amino)pyrimidin-2-yl)amino)-N-(8-methylisoquinolin-1-yl)-N-(piperidin-3-yl)benzamide], the pIC50 is 7.16.

As for `CCCN(C)c1ccnc(Nc2ccc(C(=O)N(c3nccc4cccc(C)c34)[C@@H]3CCCNC3)c(F)c2)n1` [Example 745, (R)-2-fluoro-4-((4-(methyl(propyl)amino)pyrimidin-2-yl)amino)-N-(8-methylisoquinolin-1-yl)-N-(piperidin-3-yl)benzamide], the pIC50 was 6.80.

On to `CCCNc1ccnc(Nc2ccc(C(=O)N(c3nccc4cccc(C)c34)[C@@H]3CCCNC3)c(F)c2)n1` [Example 746, (R)-2-fluoro-N-(8-methylisoquinolin-1-yl)-N-(piperidin-3-yl)-4-((4-(propylamino)pyrimidin-2-yl)amino)benzamide], for which the negative logarithm of the IC50 (pIC50) is 7.48.

In the case of `Cc1cc(C(=O)N(c2nccc3cccc(C)c23)[C@@H]2CCCNC2)ccc1Nc1ncccn1` [Example 747, (R)-3-methyl-N-(8-methylisoquinolin-1-yl)-N-(piperidin-3-yl)-4-(pyrimidin-2-ylamino)benzamide], the pIC50 is 5.57.

Consider `Cc1cccc2ccnc(N(C(=O)c3ccc(Nc4nccc(/C=C/CO)n4)cc3F)[C@@H]3CCCNC3)c12` [Example 748, (R,E)-2-fluoro-4-((4-(3-hydroxyprop-1-en-1-yl)pyrimidin-2-yl)amino)-N-(8-methylisoquinolin-1-yl)-N-(piperidin-3-yl)benzamide], for which the pIC50 was 7.04.

As for `COC/C=C/c1ccnc(Nc2ccc(C(=O)N(c3nccc4cccc(C)c34)[C@@H]3CCCNC3)c(F)c2)n1` [Example 749, (R,E)-2-fluoro-4-((4-(3-methoxyprop-1-en-1-yl)pyrimidin-2-yl)amino)-N-(8-methylisoquinolin-1-yl)-N-(piperidin-3-yl)benzamide], the pIC50 is 6.85.

As for `COCC#Cc1ccnc(Nc2ccc(C(=O)N(c3nccc4cccc(C)c34)[C@@H]3CCCNC3)c(F)c2)n1` [Example 751, (R)-2-fluoro-4-((4-(3-methoxyprop-1-yn-1-yl)pyrimidin-2-yl)amino)-N-(8-methylisoquinolin-1-yl)-N-(piperidin-3-yl)benzamide], the negative logarithm of the IC50 (pIC50) is 6.72.

Consider `COCCCc1ccnc(Nc2ccc(C(=O)N(c3nccc4cccc(C)c34)[C@@H]3CCCNC3)c(F)c2)n1` [Example 752, (R)-2-fluoro-4-((4-(3-methoxypropyl)pyrimidin-2-yl)amino)-N-(8-methylisoquinolin-1-yl)-N-(piperidin-3-yl)benzamide], for which the pIC50 is 6.72.

Regarding `CCc1nc(Nc2ccc(C(=O)N(c3nccc4cccc(C)c34)[C@@H]3CCCNC3)c(F)c2)ncc1F` [Example 753, (R)-4-((4-ethyl-5-fluoropyrimidin-2-yl)amino)-2-fluoro-N-(8-methylisoquinolin-1-yl)-N-(piperidin-3-yl)benzamide], the pIC50 is 6.77.

For the compound `Cc1nc(Nc2ccc(C(=O)N(c3nccc4cccc(C)c34)[C@@H]3CCCNC3)c(F)c2)ncc1F` [Example 754, (R)-2-fluoro-4-((5-fluoro-4-methylpyrimidin-2-yl)amino)-N-(8-methylisoquinolin-1-yl)-N-(piperidin-3-yl)benzamide], the pIC50 was 6.47.

In the case of `Cc1nnc(-c2ccc(C(=O)N(c3nccc4cc(Cl)cc(C)c34)[C@@H]3CCCNC3)cc2)s1` [Example 755, (R)—N-(6-chloro-8-methylisoquinolin-1-yl)-4-(5-methyl-1,3,4-thiadiazol-2-yl)-N-(piperidin-3-yl)benzamide], the negative-log IC50 (pIC50) is 7.06.

On to `Cc1cc2c(N(C(=O)c3ccc(-n4cnc5ccccc54)cc3F)[C@@H]3CCCNC3)nccc2s1` [Example 756, (R)-4-(1H-benzo[d]imidazol-1-yl)-2-fluoro-N-(2-methylthieno[3,2-c]pyridin-4-yl)-N-(piperidin-3-yl)benzamide], for which the pIC50 is less than 5.20.

As to `Cc1nnc(-c2ccc(C(=O)N(c3nccc4scc(C)c34)[C@@H]3CCCNC3)c(C)c2)s1` [Example 757, 2-methyl-4-(5-methyl-1,3,4-thiadiazol-2-yl)-N-(3-methylthieno[3,2-c]pyridin-4-yl)-N-[(3R)-3-piperidyl]benzamide], the pIC50 was 6.28.

For the compound `Cc1csc2ccnc(N(C(=O)c3ccc(-c4cn(C)nn4)cc3Cl)[C@@H]3CCCNC3)c12` [Example 758, (R)-2-chloro-4-(1-methyl-1H-1,2,3-triazol-4-yl)-N-(3-methylthieno[3,2-c]pyridin-4-yl)-N-(piperidin-3-yl)benzamide], the pIC50 was 6.77.

In the case of `Cn1cc(-c2ccc(C(=O)N(c3nccc4c(F)cccc34)[C@@H]3CCCNC3)c(F)c2)nn1` [Example 759, (R)-2-fluoro-N-(5-fluoroisoquinolin-1-yl)-4-(1-methyl-1H-1,2,3-triazol-4-yl)-N-(piperidin-3-yl)benzamide], the pIC50 was 6.28.

As to `Cc1nnc(-c2ccc(C(=O)N(c3nccc4c(F)ccc(C)c34)[C@@H]3CCCNC3)c(F)c2)s1` [Example 760, (R)-2-fluoro-N-(5-fluoro-8-methylisoquinolin-1-yl)-4-(5-methyl-1,3,4-thiadiazol-2-yl)-N-(piperidin-3-yl)benzamide], the pIC50 was 6.80.

Regarding `Cc1ccc(F)c2ccnc(N(C(=O)c3ccc(-c4cn(C)nn4)cc3F)[C@@H]3CCCNC3)c12` [Example 761, (R)-2-fluoro-N-(5-fluoro-8-methylisoquinolin-1-yl)-4-(1-methyl-1H-1,2,3-triazol-4-yl)-N-(piperidin-3-yl)benzamide], the pIC50 was 7.16.

For the compound `COc1ccc2c(N(C(=O)c3ccc(-c4nnc(C)s4)cc3F)[C@@H]3CCCNC3)nccc2c1` [Example 762, (R)-2-fluoro-N-(6-methoxyisoquinolin-1-yl)-4-(5-methyl-1,3,4-thiadiazol-2-yl)-N-(piperidin-3-yl)benzamide], the pIC50 is 6.21.

Take `Cc1cc(Cl)cc2ccnc(N(C(=O)c3ccc(-c4nnn(C)c4C)cc3F)[C@@H]3CCCNC3)c12` [Example 763, (R)—N-(6-chloro-8-methylisoquinolin-1-yl)-4-(1,5-dimethyl-1H-1,2,3-triazol-4-yl)-2-fluoro-N-(piperidin-3-yl)benzamide]: the pIC50 is 7.47.

Regarding `Cc1nnc(-c2ccc(C(=O)N(c3nccc4cc(Cl)cc(C)c34)[C@@H]3CCCNC3)c(Cl)c2)o1` [Example 764, (R)-2-chloro-N-(6-chloro-8-methylisoquinolin-1-yl)-4-(5-methyl-1,3,4-oxadiazol-2-yl)-N-(piperidin-3-yl)benzamide], the pIC50 was less than 5.12.

Regarding `Cc1nnc(-c2ccc(C(=O)N(c3nccc4cc(Cl)cc(C)c34)[C@@H]3CCCNC3)c(F)c2)o1` [Example 765, (R)—N-(6-chloro-8-methylisoquinolin-1-yl)-2-fluoro-4-(5-methyl-1,3,4-oxadiazol-2-yl)-N-(piperidin-3-yl)benzamide], the pIC50 was 7.07.

Take `[2H]C([2H])([2H])c1nnc(-c2ccc(C(=O)N(c3nccc4cc(Cl)cc(C)c34)[C@@H]3CCCNC3)c(F)c2)s1` [Example 766, (R)—N-(6-chloro-8-methylisoquinolin-1-yl)-2-fluoro-4-(5-(methyl-d3)-1,3,4-thiadiazol-2-yl)-N-(piperidin-3-yl)benzamide]: the negative logarithm of the IC50 (pIC50) was 7.00.

On to `[2H]C([2H])([2H])c1nnc(-c2ccc(C(=O)N(c3nccc4cc(F)cc(C)c34)[C@@H]3CCCNC3)c(F)c2)s1` [Example 767, 2-fluoro-N-(6-fluoro-8-methyl-1-isoquinolyl)-N-[(3R)-3-piperidyl]-4-[5-(trideuteriomethyl)-1,3,4-thiadiazol-2-yl]benzamide], for which the negative logarithm of the IC50 (pIC50) is 6.89.

As to `Cc1csc2ccnc(N(C(=O)c3ccc(-c4cc(Cl)cnn4)cc3F)[C@@H]3CCCNC3)c12` [Example 768, (R)-4-(5-chloropyridazin-3-yl)-2-fluoro-N-(3-methylthieno[3,2-c]pyridin-4-yl)-N-(piperidin-3-yl)benzamide], the pIC50 is 7.04.

For `Cc1cc(Cl)cc2ccnc(N(C(=O)c3ccc(-c4cc(Cl)cnn4)cn3)[C@@H]3CCCNC3)c12` [Example 769, (R)—N-(6-chloro-8-methylisoquinolin-1-yl)-5-(5-chloropyridazin-3-yl)-N-(piperidin-3-yl)picolinamide], the pIC50 was 6.92.

`Cc1cc(F)cc2ccnc(N(C(=O)c3ccc(-c4nnn(C)c4C)cc3)[C@@H]3CCCNC3)c12` [Example 770, (R)-4-(1,5-dimethyl-1H-1,2,3-triazol-4-yl)-N-(6-fluoro-8-methylisoquinolin-1-yl)-N-(piperidin-3-yl)benzamide]: the negative logarithm of the IC50 (pIC50) is 6.37.

For the compound `Cc1cc(Cl)cc2ccnc(N(C(=O)c3ccc(-c4nnn(C)c4C)cc3)[C@@H]3CCCNC3)c12` [Example 771, (R)—N-(6-chloro-8-methylisoquinolin-1-yl)-4-(1,5-dimethyl-1H-1,2,3-triazol-4-yl)-N-(piperidin-3-yl)benzamide], the pIC50 is 6.85.

`Cc1nnc(-c2ccc(C(=O)N(c3nccc4cc(Cl)cc(C)c34)[C@@H]3CCCNC3)cc2)o1` [Example 772, (R)—N-(6-chloro-8-methylisoquinolin-1-yl)-4-(5-methyl-1,3,4-oxadiazol-2-yl)-N-(piperidin-3-yl)benzamide]: the negative logarithm of the IC50 (pIC50) is 6.89.
